Assay results taken from ChEMBL document CHEMBL6115030, “Systematic All-Hydrocarbon Stapling Analysis for Cecropin A Generates a Potent and Stable Antimicrobial Peptide” (J Med Chem, 2025).
Converted amounts (≈) assume the structure as drawn. Bridge positions count the residues as written; N and C are the ends. Square brackets hold non-standard residues; d marks the D form. Peptide text beside a SMILES is read from it. S5 = C=CCCC[C@](C)(N)C(=O)O

Assays:
Assay type in all cases: functional
[1] = test system: Staphylococcus aureus; experiment: Antibacterial activity against Staphylococcus aureus ATCC 25923 assessed as inhibition of bacterial growth measured after 24 hrs by broth microdilution method
[2] = test system: Klebsiella pneumoniae; experiment: Antibacterial activity against Klebsiella pneumoniae ATCC 13883 assessed as inhibition of bacterial growth measured after 24 hrs by broth microdilution method
[3] = test system: Pseudomonas aeruginosa; experiment: Antibacterial activity against Pseudomonas aeruginosa PAO1 assessed as inhibition of bacterial growth measured after 24 hrs by broth microdilution method

| Structure (SMILES) | MIC [1] | MIC [2] | MIC [3] |
| --- | --- | --- | --- |
| CC[C@H](C)[C@H](NC(=O)CNC(=O)[C@H](CC(=O)O)NC(=O)[C@H](CCCNC(=N)N)NC(=O)[C@]1(C)CCC/C=C\CCC[C@](C)(NC(=O)[C@H](CCCCN)NC(=O)[C@H](CCC(=O)O)NC(=O)[C@@H](NC(=O)[C@H](CCCCN)NC(=O)[C@H](CCCCN)NC(=O)[C@H](Cc2ccccc2)NC(=O)[C@H](CC(C)C)NC(=O)[C@H](CCCCN)NC(=O)[C@H](Cc2c[nH]c3ccccc23)NC(=O)[C@H](CCCCN)NC(C)=O)[C@@H](C)CC)C(=O)NCC(=O)N[C@@H](CCC(N)=O)C(=O)N[C@@H](CC(N)=O)C(=O)N1)C(=O)N[C@H](C(=O)N[C@@H](CCCCN)C(=O)N[C@@H](C)C(=O)NCC(=O)N1CCC[C@H]1C(=O)N[C@@H](C)C(=O)N[C@H](C(=O)N[C@@H](C)C(=O)N[C@H](C(=O)N[C@H](C(=O)NCC(=O)N[C@@H](CCC(N)=O)C(=O)N[C@@H](C)C(=O)N[C@H](C(=O)N[C@@H](CCC(N)=O)C(=O)N[C@H](C(=O)N[C@@H](C)C(=O)N[C@@H](CCCCN)C(N)=O)[C@@H](C)CC)[C@@H](C)O)C(C)C)C(C)C)C(C)C)[C@@H](C)CC (Ac-KWKLFKKIEK[S5]GQN[S5]RDGIIKAGPAVAVVGQATQIAK-NH2; staple (Z) 11-15) | 25 µM (≈ 102 µg/mL) | 6.25 µM (≈ 25.5 µg/mL) | 80 µM (≈ 327 µg/mL) |
| CC[C@H](C)[C@H](NC(=O)CNC(=O)[C@H](CC(=O)O)NC(=O)[C@H](CCCNC(=N)N)NC(=O)[C@@H](NC(=O)[C@]1(C)CCC/C=C\CCC[C@](C)(NC(=O)[C@H](CCC(=O)O)NC(=O)[C@@H](NC(=O)[C@H](CCCCN)NC(=O)[C@H](CCCCN)NC(=O)[C@H](Cc2ccccc2)NC(=O)[C@H](CC(C)C)NC(=O)[C@H](CCCCN)NC(=O)[C@H](Cc2c[nH]c3ccccc23)NC(=O)[C@H](CCCCN)NC(C)=O)[C@@H](C)CC)C(=O)N[C@@H](C(C)C)C(=O)NCC(=O)N[C@@H](CCC(N)=O)C(=O)N1)[C@@H](C)CC)C(=O)N[C@H](C(=O)N[C@@H](CCCCN)C(=O)N[C@@H](C)C(=O)NCC(=O)N1CCC[C@H]1C(=O)N[C@@H](C)C(=O)N[C@H](C(=O)N[C@@H](C)C(=O)N[C@H](C(=O)N[C@H](C(=O)NCC(=O)N[C@@H](CCC(N)=O)C(=O)N[C@@H](C)C(=O)N[C@H](C(=O)N[C@@H](CCC(N)=O)C(=O)N[C@H](C(=O)N[C@@H](C)C(=O)N[C@@H](CCCCN)C(N)=O)[C@@H](C)CC)[C@@H](C)O)C(C)C)C(C)C)C(C)C)[C@@H](C)CC (Ac-KWKLFKKIE[S5]VGQ[S5]IRDGIIKAGPAVAVVGQATQIAK-NH2; staple (Z) 10-14) | > 100 µM | > 100 µM | > 100 µM |
| CC[C@H](C)[C@H](NC(=O)CNC(=O)[C@H](CC(=O)O)NC(=O)[C@H](CCCNC(=N)N)NC(=O)[C@@H](NC(=O)[C@H](CC(N)=O)NC(=O)[C@]1(C)CCC/C=C\CCC[C@](C)(NC(=O)[C@@H](NC(=O)[C@H](CCCCN)NC(=O)[C@H](CCCCN)NC(=O)[C@H](Cc2ccccc2)NC(=O)[C@H](CC(C)C)NC(=O)[C@H](CCCCN)NC(=O)[C@H](Cc2c[nH]c3ccccc23)NC(=O)[C@H](CCCCN)NC(C)=O)[C@@H](C)CC)C(=O)N[C@@H](CCCCN)C(=O)N[C@@H](C(C)C)C(=O)NCC(=O)N1)[C@@H](C)CC)C(=O)N[C@H](C(=O)N[C@@H](CCCCN)C(=O)N[C@@H](C)C(=O)NCC(=O)N1CCC[C@H]1C(=O)N[C@@H](C)C(=O)N[C@H](C(=O)N[C@@H](C)C(=O)N[C@H](C(=O)N[C@H](C(=O)NCC(=O)N[C@@H](CCC(N)=O)C(=O)N[C@@H](C)C(=O)N[C@H](C(=O)N[C@@H](CCC(N)=O)C(=O)N[C@H](C(=O)N[C@@H](C)C(=O)N[C@@H](CCCCN)C(N)=O)[C@@H](C)CC)[C@@H](C)O)C(C)C)C(C)C)C(C)C)[C@@H](C)CC (Ac-KWKLFKKI[S5]KVG[S5]NIRDGIIKAGPAVAVVGQATQIAK-NH2; staple (Z) 9-13) | 1.56 µM (≈ 6.3 µg/mL) | 6.25 µM (≈ 25.2 µg/mL) | > 100 µM |
| CC[C@H](C)[C@H](NC(=O)CNC(=O)[C@H](CC(=O)O)NC(=O)[C@H](CCCNC(=N)N)NC(=O)[C@@H](NC(=O)[C@H](CC(N)=O)NC(=O)[C@H](CCC(N)=O)NC(=O)[C@]1(C)CCC/C=C\CCC[C@](C)(NC(=O)[C@H](CCCCN)NC(=O)[C@H](CCCCN)NC(=O)[C@H](Cc2ccccc2)NC(=O)[C@H](CC(C)C)NC(=O)[C@H](CCCCN)NC(=O)[C@H](Cc2c[nH]c3ccccc23)NC(=O)[C@H](CCCCN)NC(C)=O)C(=O)N[C@@H](CCC(=O)O)C(=O)N[C@@H](CCCCN)C(=O)N[C@@H](C(C)C)C(=O)N1)[C@@H](C)CC)C(=O)N[C@H](C(=O)N[C@@H](CCCCN)C(=O)N[C@@H](C)C(=O)NCC(=O)N1CCC[C@H]1C(=O)N[C@@H](C)C(=O)N[C@H](C(=O)N[C@@H](C)C(=O)N[C@H](C(=O)N[C@H](C(=O)NCC(=O)N[C@@H](CCC(N)=O)C(=O)N[C@@H](C)C(=O)N[C@H](C(=O)N[C@@H](CCC(N)=O)C(=O)N[C@H](C(=O)N[C@@H](C)C(=O)N[C@@H](CCCCN)C(N)=O)[C@@H](C)CC)[C@@H](C)O)C(C)C)C(C)C)C(C)C)[C@@H](C)CC (Ac-KWKLFKK[S5]EKV[S5]QNIRDGIIKAGPAVAVVGQATQIAK-NH2; staple (Z) 8-12) | 6.25 µM (≈ 25.8 µg/mL) | 6.25 µM (≈ 25.8 µg/mL) | > 100 µM |
| CC[C@H](C)[C@H](NC(=O)CNC(=O)[C@H](CC(=O)O)NC(=O)[C@H](CCCNC(=N)N)NC(=O)[C@@H](NC(=O)[C@H](CC(N)=O)NC(=O)[C@H](CCC(N)=O)NC(=O)CNC(=O)[C@]1(C)CCC/C=C\CCC[C@](C)(NC(=O)[C@H](CCCCN)NC(=O)[C@H](Cc2ccccc2)NC(=O)[C@H](CC(C)C)NC(=O)[C@H](CCCCN)NC(=O)[C@H](Cc2c[nH]c3ccccc23)NC(=O)[C@H](CCCCN)NC(C)=O)C(=O)N[C@@H]([C@@H](C)CC)C(=O)N[C@@H](CCC(=O)O)C(=O)N[C@@H](CCCCN)C(=O)N1)[C@@H](C)CC)C(=O)N[C@H](C(=O)N[C@@H](CCCCN)C(=O)N[C@@H](C)C(=O)NCC(=O)N1CCC[C@H]1C(=O)N[C@@H](C)C(=O)N[C@H](C(=O)N[C@@H](C)C(=O)N[C@H](C(=O)N[C@H](C(=O)NCC(=O)N[C@@H](CCC(N)=O)C(=O)N[C@@H](C)C(=O)N[C@H](C(=O)N[C@@H](CCC(N)=O)C(=O)N[C@H](C(=O)N[C@@H](C)C(=O)N[C@@H](CCCCN)C(N)=O)[C@@H](C)CC)[C@@H](C)O)C(C)C)C(C)C)C(C)C)[C@@H](C)CC (Ac-KWKLFK[S5]IEK[S5]GQNIRDGIIKAGPAVAVVGQATQIAK-NH2; staple (Z) 7-11) | > 100 µM | 6.25 µM (≈ 25.4 µg/mL) | > 100 µM |
| CC[C@H](C)[C@H](NC(=O)CNC(=O)[C@H](CC(=O)O)NC(=O)[C@H](CCCNC(=N)N)NC(=O)[C@@H](NC(=O)[C@H](CC(N)=O)NC(=O)[C@H](CCC(N)=O)NC(=O)CNC(=O)[C@@H](NC(=O)[C@]1(C)CCC/C=C\CCC[C@](C)(NC(=O)[C@H](Cc2ccccc2)NC(=O)[C@H](CC(C)C)NC(=O)[C@H](CCCCN)NC(=O)[C@H](Cc2c[nH]c3ccccc23)NC(=O)[C@H](CCCCN)NC(C)=O)C(=O)N[C@@H](CCCCN)C(=O)N[C@@H]([C@@H](C)CC)C(=O)N[C@@H](CCC(=O)O)C(=O)N1)C(C)C)[C@@H](C)CC)C(=O)N[C@H](C(=O)N[C@@H](CCCCN)C(=O)N[C@@H](C)C(=O)NCC(=O)N1CCC[C@H]1C(=O)N[C@@H](C)C(=O)N[C@H](C(=O)N[C@@H](C)C(=O)N[C@H](C(=O)N[C@H](C(=O)NCC(=O)N[C@@H](CCC(N)=O)C(=O)N[C@@H](C)C(=O)N[C@H](C(=O)N[C@@H](CCC(N)=O)C(=O)N[C@H](C(=O)N[C@@H](C)C(=O)N[C@@H](CCCCN)C(N)=O)[C@@H](C)CC)[C@@H](C)O)C(C)C)C(C)C)C(C)C)[C@@H](C)CC (Ac-KWKLF[S5]KIE[S5]VGQNIRDGIIKAGPAVAVVGQATQIAK-NH2; staple (Z) 6-10) | > 100 µM | > 100 µM | > 100 µM |
| CC[C@H](C)[C@H](NC(=O)CNC(=O)[C@H](CC(=O)O)NC(=O)[C@H](CCCNC(=N)N)NC(=O)[C@@H](NC(=O)[C@H](CC(N)=O)NC(=O)[C@H](CCC(N)=O)NC(=O)CNC(=O)[C@@H](NC(=O)[C@H](CCCCN)NC(=O)[C@]1(C)CCC/C=C\CCC[C@](C)(NC(=O)[C@H](CC(C)C)NC(=O)[C@H](CCCCN)NC(=O)[C@H](Cc2c[nH]c3ccccc23)NC(=O)[C@H](CCCCN)NC(C)=O)C(=O)N[C@@H](CCCCN)C(=O)N[C@@H](CCCCN)C(=O)N[C@@H]([C@@H](C)CC)C(=O)N1)C(C)C)[C@@H](C)CC)C(=O)N[C@H](C(=O)N[C@@H](CCCCN)C(=O)N[C@@H](C)C(=O)NCC(=O)N1CCC[C@H]1C(=O)N[C@@H](C)C(=O)N[C@H](C(=O)N[C@@H](C)C(=O)N[C@H](C(=O)N[C@H](C(=O)NCC(=O)N[C@@H](CCC(N)=O)C(=O)N[C@@H](C)C(=O)N[C@H](C(=O)N[C@@H](CCC(N)=O)C(=O)N[C@H](C(=O)N[C@@H](C)C(=O)N[C@@H](CCCCN)C(N)=O)[C@@H](C)CC)[C@@H](C)O)C(C)C)C(C)C)C(C)C)[C@@H](C)CC (Ac-KWKL[S5]KKI[S5]KVGQNIRDGIIKAGPAVAVVGQATQIAK-NH2; staple (Z) 5-9) | 1.56 µM (≈ 6.27 µg/mL) | 6.25 µM (≈ 25.1 µg/mL) | > 100 µM |
| CC[C@H](C)[C@H](NC(=O)CNC(=O)[C@H](CC(=O)O)NC(=O)[C@H](CCCNC(=N)N)NC(=O)[C@@H](NC(=O)[C@H](CC(N)=O)NC(=O)[C@H](CCC(N)=O)NC(=O)CNC(=O)[C@@H](NC(=O)[C@H](CCCCN)NC(=O)[C@H](CCC(=O)O)NC(=O)[C@]1(C)CCC/C=C\CCC[C@](C)(NC(=O)[C@H](CCCCN)NC(=O)[C@H](Cc2c[nH]c3ccccc23)NC(=O)[C@H](CCCCN)NC(C)=O)C(=O)N[C@@H](Cc2ccccc2)C(=O)N[C@@H](CCCCN)C(=O)N[C@@H](CCCCN)C(=O)N1)C(C)C)[C@@H](C)CC)C(=O)N[C@H](C(=O)N[C@@H](CCCCN)C(=O)N[C@@H](C)C(=O)NCC(=O)N1CCC[C@H]1C(=O)N[C@@H](C)C(=O)N[C@H](C(=O)N[C@@H](C)C(=O)N[C@H](C(=O)N[C@H](C(=O)NCC(=O)N[C@@H](CCC(N)=O)C(=O)N[C@@H](C)C(=O)N[C@H](C(=O)N[C@@H](CCC(N)=O)C(=O)N[C@H](C(=O)N[C@@H](C)C(=O)N[C@@H](CCCCN)C(N)=O)[C@@H](C)CC)[C@@H](C)O)C(C)C)C(C)C)C(C)C)[C@@H](C)CC (Ac-KWK[S5]FKK[S5]EKVGQNIRDGIIKAGPAVAVVGQATQIAK-NH2; staple (Z) 4-8) | 25 µM (≈ 102 µg/mL) | 6.25 µM (≈ 25.4 µg/mL) | > 100 µM |
